These results are taken from patent US9006450B2 (Boehringer Ingelheim International GmbH, priority 2010, dated 2015).

T1 sequence (O00763 129-2458 limits assumed): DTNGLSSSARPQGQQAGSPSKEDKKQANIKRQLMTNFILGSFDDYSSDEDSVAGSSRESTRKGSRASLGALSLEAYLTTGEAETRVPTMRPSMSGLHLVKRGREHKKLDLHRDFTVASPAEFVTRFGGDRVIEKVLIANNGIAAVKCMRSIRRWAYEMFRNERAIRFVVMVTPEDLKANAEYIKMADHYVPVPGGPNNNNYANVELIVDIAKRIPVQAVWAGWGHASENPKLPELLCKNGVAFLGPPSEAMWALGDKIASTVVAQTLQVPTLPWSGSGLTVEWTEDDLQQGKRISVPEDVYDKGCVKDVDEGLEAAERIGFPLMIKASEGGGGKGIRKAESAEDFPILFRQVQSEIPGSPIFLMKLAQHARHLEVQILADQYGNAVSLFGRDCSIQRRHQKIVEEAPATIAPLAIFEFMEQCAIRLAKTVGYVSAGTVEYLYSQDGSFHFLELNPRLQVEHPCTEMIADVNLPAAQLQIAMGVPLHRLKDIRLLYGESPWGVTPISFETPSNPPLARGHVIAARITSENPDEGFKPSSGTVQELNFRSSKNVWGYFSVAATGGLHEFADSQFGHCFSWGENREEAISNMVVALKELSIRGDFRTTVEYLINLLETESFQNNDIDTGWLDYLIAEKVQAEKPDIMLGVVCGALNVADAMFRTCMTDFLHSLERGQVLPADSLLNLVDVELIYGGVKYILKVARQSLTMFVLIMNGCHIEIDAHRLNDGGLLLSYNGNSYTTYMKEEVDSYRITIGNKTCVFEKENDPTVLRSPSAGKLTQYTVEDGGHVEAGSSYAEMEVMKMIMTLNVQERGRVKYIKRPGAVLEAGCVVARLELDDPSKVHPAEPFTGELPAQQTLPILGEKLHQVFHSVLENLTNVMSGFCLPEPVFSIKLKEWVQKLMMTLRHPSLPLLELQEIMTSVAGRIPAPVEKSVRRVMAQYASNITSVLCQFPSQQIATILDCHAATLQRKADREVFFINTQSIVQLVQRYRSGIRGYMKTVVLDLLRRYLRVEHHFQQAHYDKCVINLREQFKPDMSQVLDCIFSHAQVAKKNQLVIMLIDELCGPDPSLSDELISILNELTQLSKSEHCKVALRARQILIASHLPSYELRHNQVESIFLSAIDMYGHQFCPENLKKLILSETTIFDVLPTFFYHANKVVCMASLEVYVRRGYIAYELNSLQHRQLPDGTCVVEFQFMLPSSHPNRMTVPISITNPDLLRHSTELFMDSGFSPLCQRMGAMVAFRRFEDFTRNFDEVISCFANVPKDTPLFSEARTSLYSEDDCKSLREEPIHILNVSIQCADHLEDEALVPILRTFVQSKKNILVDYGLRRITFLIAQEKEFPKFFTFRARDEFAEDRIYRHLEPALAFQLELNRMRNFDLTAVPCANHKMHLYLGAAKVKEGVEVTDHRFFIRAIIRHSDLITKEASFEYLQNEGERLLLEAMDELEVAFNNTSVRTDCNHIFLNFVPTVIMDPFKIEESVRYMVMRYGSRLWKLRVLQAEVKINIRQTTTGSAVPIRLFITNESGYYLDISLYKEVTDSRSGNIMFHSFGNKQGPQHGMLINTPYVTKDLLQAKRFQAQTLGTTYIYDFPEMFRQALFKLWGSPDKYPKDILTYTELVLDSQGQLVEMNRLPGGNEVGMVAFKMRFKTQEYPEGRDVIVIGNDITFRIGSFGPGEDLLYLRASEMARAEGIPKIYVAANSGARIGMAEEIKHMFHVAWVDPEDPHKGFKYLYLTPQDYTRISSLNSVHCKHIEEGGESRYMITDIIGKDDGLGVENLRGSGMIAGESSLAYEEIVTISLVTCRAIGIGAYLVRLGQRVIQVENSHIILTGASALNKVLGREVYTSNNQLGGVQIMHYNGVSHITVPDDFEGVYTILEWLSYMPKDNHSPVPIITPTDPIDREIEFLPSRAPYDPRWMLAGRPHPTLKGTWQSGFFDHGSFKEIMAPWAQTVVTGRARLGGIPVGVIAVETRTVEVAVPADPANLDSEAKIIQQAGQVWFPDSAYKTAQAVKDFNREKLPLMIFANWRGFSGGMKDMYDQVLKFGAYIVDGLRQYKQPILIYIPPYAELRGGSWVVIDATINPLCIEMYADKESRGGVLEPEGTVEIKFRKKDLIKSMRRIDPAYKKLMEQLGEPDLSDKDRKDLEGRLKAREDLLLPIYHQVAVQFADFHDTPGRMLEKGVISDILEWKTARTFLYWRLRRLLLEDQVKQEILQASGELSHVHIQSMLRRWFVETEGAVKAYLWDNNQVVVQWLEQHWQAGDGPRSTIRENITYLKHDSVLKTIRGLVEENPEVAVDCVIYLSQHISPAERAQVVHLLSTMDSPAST

This assay addresses T1, human ACC2 (Homo sapiens, UniProt O00763).
T1 construct: made in house; host or cells: insect cells (baculoviral expression system)
The assay is described as follows: ACC2 assay, spectrophotometric 384 well assay (NADH-linked, coupled lactate dehydrogenase/pyruvate kinase). Format: biochemical. The settings on record: ACC2 assay, hACC2 construct lacking 128 N-terminal amino acids, 25° C., 340 nm; read-out: IC50. In a few lines:
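Human ACC2 lacking N-terminal 128 aa, baculovirus/insect-cell expressed, anion-exchange purified; 100 mM Tris pH 7.5, 10 mM citrate, 25 mM KHCO3, 1% DMSO. Started with 200 μM NADH and acetyl-CoA plus 500 μM ATP; PK/LDH-coupled A340 decrease read 15 min at 25° C. IC50 by nonlinear fit of low-control-subtracted slopes.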
With `CCC(C)Oc1cc(N2CCC(c3ccc([C@H](C)NC(C)=O)cc3)CC2)ccn1` (stereo partly shown) [Example 19.13], the half-maximal inhibitory concentration (IC50) is 0.09 µM.
For the compound `C[C@H](NC(=O)C1CC1)c1ccc(C2CCN(c3ncc(-c4ccoc4)cn3)CC2)cc1` [Example 10.104], the IC50 came out at 0.17 µM.
Then `CC(=O)N[C@@H](C)c1ccc(C2CCN(c3ncc(C(=O)Nc4ccccc4F)cn3)CC2)cc1` [Example 18.6], with 0.26 µM.
Regarding `CC(=O)N[C@@H](C)c1ccc(C2CCN(c3ccc(OCC(C)C)cc3)CC2)cc1` [Example 3.7], the 50% inhibitory concentration (IC50) is 0.74 µM.
As for `CC(=O)N[C@@H](C)c1ccc(C2CCN(c3ccc4c(n3)C(=O)CC4)CC2)cc1` [Example 5.27], the IC50 came out at 5.2 µM.
Then `CC(=O)N[C@@H](C)c1ccc(C2CCN(c3ncc(C(=O)Nc4ccccn4)cn3)CC2)cc1` [Example 18.15], with 7.2 µM; and `COC(=O)N[C@@H](C)c1ccc(C2CCN(c3ccc(OC4CC4)cc3)CC2)cc1` [Example 1.113], with 0.14 µM; and `CC(=O)N[C@@H](C)c1ccc(C2CCN(c3ccc4c(c3F)OCCO4)CC2)cc1` [Example 1.192], with 0.12 µM.
With `CC(=O)N[C@@H](C)c1ccc(C2CCN(c3ccc(-c4ccccc4)cn3)CC2)cc1` [Example 4.15], the half-maximal inhibitory concentration (IC50) was 0.22 µM.
`COC(=O)c1cncc(N2CCC(c3ccc([C@H](C)NC(C)=O)cc3)CC2)n1` [Example 5.54]: the 50% inhibitory concentration (IC50) stood at 9.3 µM.
Turning to `C[C@H](NC(=O)C1CC1)c1ccc(C2CCN(c3nc(Oc4ccc(F)cc4)ncc3F)CC2)cc1` [Example 11.120], the IC50 amounted to 0.28 µM.
As to `CCOc1ccc(N2CCC(c3ccc([C@H](C)NC(C)=O)cc3)CC2)c(C#N)c1` [Example 13.3], the half-maximal inhibitory concentration (IC50) came out at 0.17 µM.
On to `COCCCOc1ccc(N2CCC(c3ccc([C@H](C)NC(C)=O)cc3)CC2)c(F)c1` [Example 1.99], for which the IC50 worked out at 0.33 µM.
On to `CC(C)COc1ccc(N2CCC(c3ccc([C@H](C)NC(=O)C4CC4)cc3)CC2)nc1` [Example 1.118], for which the IC50 was determined as 0.12 µM.
Then `CC(=O)N[C@@H](C)c1ccc(C2CCN(c3nc4ccccc4s3)CC2)cc1` [Example 4.2], with 1.3 µM.
Then `CCOc1ccc(N2CCC(c3ccc([C@H](C)NC(=O)N(C)Cc4ccn(C)n4)cc3)CC2)cc1` [Example 14.64], with 3.8 µM.
On to `CC(=O)N[C@@H](C)c1ccc(C2CCN(c3ccc(OC4CCC4)nc3)CC2)cc1` [Example 1.62], for which the IC50 is 0.2 µM.
Turning to `C[C@H](NC(=O)N(C)C)c1ccc(C2CCN(c3ccc(OCCC4CC4)cc3)CC2)cc1` [Example 1.144], the IC50 came out at 0.06 µM.
Then `CC(=O)N[C@@H](C)c1ccc(C2CCN(c3ncc(-c4ccc(C#N)cc4)cn3)CC2)cc1` [Example 10.10], with 0.07 µM; and `C[C@H](NC(=O)C1CC1)c1ccc(C2CCN(c3ncc4nc(-c5ccsc5)oc4n3)CC2)cc1` [Example 4.301], with 0.39 µM.
For `CCC(NC(C)=O)c1ccc(C2CCN(c3ccc(OC4CC4)cc3)CC2)cc1` (stereo not shown) [Example 1.204] the value was 0.45 µM; for `CC(=O)N[C@@H](C)c1ccc(C2CCN(c3ncc(C(=O)N4CCC(C#N)CC4)cn3)CC2)cc1` [Example 18.71], 14.8 µM.
For `CC(=O)N[C@@H](C)c1ccc(C2CCN(c3ccnc(OCC4CC4(F)F)c3)CC2)cc1` (stereo partly shown) [Example 19.26], the concentration for half-maximal inhibition (IC50) stood at 0.15 µM.
In the case of `CC(=O)N[C@@H](C)c1ccc(C2CCN(c3ncc(C(=O)N(C)CC4(C)COC4)cn3)CC2)cc1` [Example 18.68], the IC50 amounted to 19 µM.
For `CC(=O)N[C@@H](C)c1ccc(C2CCN(c3nc(-c4ccccc4)no3)CC2)cc1` [Example 25.3] the value was 0.95 µM; for `CC(=O)N[C@@H](C)c1ccc(C2CCN(c3ncc(C(=O)NCC4CCCCO4)cn3)CC2)cc1` (stereo partly shown) [Example 18.41], 21.4 µM.
Turning to `CCc1noc(N2CCC(c3ccc([C@H](C)NC(C)=O)cc3)CC2)n1` [Example 25.2], the IC50 is 10.3 µM.
With `CC(=O)N[C@@H](C)c1ccc(C2CCN(c3ncc(C(=O)N[C@H]4CCOC4)cn3)CC2)cc1` [Example 18.35], the half-maximal inhibitory concentration (IC50) turned out to be 7.3 µM.
For `CC(=O)N[C@@H](C)c1ccc(C2CCN(c3ncc(C(=O)Nc4ccc(F)cc4)cn3)CC2)cc1` [Example 18.3] the value was 0.18 µM; for `CC(=O)N[C@@H](C)c1ccc(C2CCN(c3cccc(OCC4CC4)c3)CC2)cc1` [Example 8.3], 0.2 µM.
Then `CC(=O)N[C@@H](C)c1ccc(C2CCN(c3cc(Cl)ccn3)CC2)cc1` [Example 5.13], with 3 µM.
Then `CC(=O)N[C@@H](C)c1ccc(C2CCN(c3ccc(OCC4CCC4)c(C)c3)CC2)cc1` [Example 9.37], with 0.69 µM.
On to `CC(=O)N[C@@H](C)c1ccc(C2CCN(c3ccc(OC4CCCC4)cc3)CC2)cc1` [Example 1.2], for which the IC50 was 0.05 µM.
Then `CC(=O)N[C@@H](C)c1ccc(C2CCN(c3ncc(-c4ccc5c(ccn5C)c4)cn3)CC2)cc1` [Example 10.25], with 0.32 µM; and `CC(=O)N[C@@H](C)c1ccc(C2CCN(c3ccc(C)cn3)CC2)cc1` [Example 5.46], with 1.6 µM; and `CC(=O)N[C@@H](C)c1ccc(C2CCN(c3nc(Cl)cc4ccccc34)CC2)cc1` [Example 4.8], with 0.97 µM.
For `CCOc1ccc(N2CCC(c3ccc([C@H](C)NC(=O)N(C)C)cc3)CC2)c(F)c1` [Example 1.85] the value was 0.14 µM; for `CC(=O)N[C@@H](C)c1ccc(C2CCN(c3ccnc(OCCC4CC4)c3)CC2)cc1` [Example 19.12], 0.18 µM; for `COC(=O)N[C@@H](C)c1ccc(C2CCN(c3ccc(OC4CCCC4)cc3)CC2)cc1` [Example 1.133], 0.13 µM.
Then `CC(=O)N[C@@H](C)c1ccc(C2CCN(c3nc(C)cs3)CC2)cc1` [Example 5.22], with 2.3 µM; and `CC(=O)N[C@@H](C)c1ccc(C2CCN(c3ccc(C4(S(C)(=O)=O)CC4)cn3)CC2)cc1` [Example 5.8], with 19.2 µM; and `CC(=O)N[C@@H](C)c1ccc(C2CCN(c3ccc(OCC(C)C)c(Cl)c3)CC2)cc1` [Example 8.30], with 0.16 µM.
Regarding `CCOCCOc1ccc(N2CCC(c3ccc([C@H](C)NC(C)=O)cc3)CC2)cc1` [Example 8.1], the IC50 worked out at 0.44 µM.
`CCC(CC)Oc1ccc(N2CCC(c3ccc([C@H](C)NC(C)=O)cc3)CC2)cc1` [Example 9.33]: the concentration for half-maximal inhibition (IC50) came to 0.12 µM.
For `CC(=O)N[C@@H](C)c1ccc(C2CCN(c3ccc(OC4CCCC4)c(F)c3)CC2)cc1` [Example 8.37], the 50% inhibitory concentration (IC50) amounted to 0.66 µM.
Regarding `CC(=O)N[C@@H](C)c1ccc(C2CCN(c3ncc(C4CC4)cn3)CC2)cc1` [Example 10.202], the half-inhibitory concentration (IC50) is 0.57 µM.
Then `CC(=O)N[C@@H](C)c1ccc(C2CCN(c3ncc(-c4cccc5[nH]ccc45)cn3)CC2)cc1` [Example 10.120], with 0.74 µM; and `CCOc1ncc(N2CCC(c3ccc([C@H](C)NC(=O)N(C)C)cc3)CC2)cn1` [Example 16.7], with 1.4 µM.
`CSc1ccc(-c2cnc(N3CCC(c4ccc([C@H](C)NC(C)=O)cc4)CC3)nc2)cc1` [Example 10.31]: the IC50 stood at 0.18 µM.
In the case of `CC(=O)N[C@@H](C)c1ccc(C2CCN(c3ccc(OC(C)C)cc3C#N)CC2)cc1` [Example 1.50], the IC50 was 0.12 µM.
As to `CC(=O)N[C@@H](C)c1ccc(C2CCN(c3cc(Oc4ccccc4F)ncn3)CC2)cc1` [Example 11.25], the IC50 turned out to be 0.24 µM.
For `CC(=O)N[C@@H](C)c1ccc(C2CCN(c3ncc(C(=O)N(C)c4ccccc4)cn3)CC2)cc1` [Example 18.89] the value was 1.2 µM; for `COc1ncccc1-c1cnc(N2CCC(c3ccc([C@H](C)NC(C)=O)cc3)CC2)nc1` [Example 10.58], 0.76 µM; for `CC(=O)N[C@@H](C)c1ccc(C2CCN(c3ccc4nc(C)oc4c3)CC2)cc1` [Example 15.15], 0.99 µM.
For `CC(=O)N[C@@H](C)c1ccc(C2CCN(c3ccc(Oc4ccccc4)nc3)CC2)cc1` [Example 3.1, (S)—N-{1-[4-(6′-Phenoxy-3,4,5,6-tetrahydro-2H-1,3′]bipyridinyl-4-yl)-phenyl′-ethyl}-acetamide] the value was 0.36 µM; for `CCCN(C)c1nccc(N2CCC(c3ccc([C@H](C)NC(C)=O)cc3)CC2)n1` [Example 11.69], 0.2 µM.
Turning to `CC(=O)N[C@@H](C)c1ccc(C2CCN(c3ccnc(OC4CCCCC4)c3)CC2)cc1` [Example 19.6], the IC50 came to 0.08 µM.
For `CC(=O)N[C@@H](C)c1ccc(C2CCN(c3cc(NCCC4CC4)ncn3)CC2)cc1` [Example 11.107] the value was 2.4 µM; for `CC(=O)N[C@@H](C)c1ccc(C2CCN(c3ncc(C(=O)NCc4ccn(C)n4)cn3)CC2)cc1` [Example 18.22], 11.4 µM; for `CC(=O)N[C@@H](C)c1ccc(C2CCN(c3cccc(C(F)(F)F)c3)CC2)cc1` [Example 1.188], 0.08 µM.
With `CC(=O)N[C@@H](C)c1ccc(C2CCN(c3ncc(-c4ccc(C#N)s4)cn3)CC2)cc1` [Example 10.63], the IC50 worked out at 0.03 µM.
Then `CC(=O)N[C@@H](C)c1ccc(C2CCN(c3cc(N(C)C4CCCC4)ncn3)CC2)cc1` [Example 11.97], with 0.33 µM; and `Cc1cccc(-c2cnc(N3CCC(c4ccc([C@H](C)NC(=O)C5CC5)cc4)CC3)nc2)c1` [Example 10.100], with 0.09 µM; and `CC(=O)N[C@@H](C)c1ccc(C2CCN(c3nnc(-c4ccccc4)s3)CC2)cc1` [Example 5.33], with 0.33 µM.
For `CCOc1ccc(-c2cnc(N3CCC(c4ccc([C@H](C)NC(C)=O)cc4)CC3)nc2)cn1` [Example 10.38] the value was 3 µM; for `CC(=O)N[C@@H](C)c1ccc(C2CCN(c3ncc(-c4cccnc4C)cn3)CC2)cc1` [Example 10.94], 2.3 µM.
For the compound `CC(=O)N[C@@H](C)c1ccc(C2CCN(c3ccc(Br)c(C)n3)CC2)cc1` [Example 5.23], the concentration for half-maximal inhibition (IC50) came out at 0.42 µM.
